Measurements: ChEMBL document CHEMBL1938361, “Elaborate ligand-based modeling and subsequent synthetic exploration unveil new nanomolar Ca2+/calmodulin-dependent protein kinase II inhibitory leads” (Bioorg Med Chem, 2012)

Target: Calcium/calmodulin-dependent protein kinase type II subunit delta (Homo sapiens, UniProt Q13557)
Test: Inhibition of human recombinant CAMK2delta using tetramethylbenzidine as substrate by spectrophotometry analysis

Sequence of Calcium/calmodulin-dependent protein kinase type II subunit delta (Q13557 whole entry): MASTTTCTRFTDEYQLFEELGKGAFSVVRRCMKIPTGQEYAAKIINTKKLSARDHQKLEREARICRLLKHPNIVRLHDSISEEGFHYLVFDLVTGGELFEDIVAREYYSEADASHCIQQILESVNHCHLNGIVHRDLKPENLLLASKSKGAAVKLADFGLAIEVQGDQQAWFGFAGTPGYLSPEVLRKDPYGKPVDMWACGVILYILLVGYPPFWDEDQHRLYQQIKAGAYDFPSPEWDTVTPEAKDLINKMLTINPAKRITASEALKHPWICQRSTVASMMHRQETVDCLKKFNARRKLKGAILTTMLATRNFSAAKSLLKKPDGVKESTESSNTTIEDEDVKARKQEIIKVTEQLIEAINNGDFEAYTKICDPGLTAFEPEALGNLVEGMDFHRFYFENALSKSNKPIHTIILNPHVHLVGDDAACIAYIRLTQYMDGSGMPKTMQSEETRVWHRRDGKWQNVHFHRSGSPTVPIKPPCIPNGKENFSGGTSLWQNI

IC50: 380 nM
SMILES: CN([C@@H](Cc1ccc(OS(=O)(=O)c2cccc3cnccc23)cc1)C(=O)N1CCN(c2ccccc2)CC1)S(=O)(=O)c1cccc2cnccc12
